Entries after “also recorded” stand apart in the source; their conditions may differ.
Columns and labels:
[1] = system: patients undergoing coronary artery bypass graft (CABG) surgery; test: Incidence of MI and combined clinical outcome by plasma level of AICA riboside, Phase 3; assay type: in vivo, human
From the text: The data in Table 13 reflect diagnosis of MI by both ECG and CK-MB (as described above with respect to Table 12).

[2] = system: patients undergoing coronary artery bypass graft (CABG) surgery; test: Difficulty in weaning from cardiopulmonary bypass (Phase 2); assay type: in vivo, human; details: for Weaning time (cross-clamp removal to termination of bypass): in min (unit assumed); for Weaning difficulty: balloon pump, number of patients / Weaning difficulty: return to bypass, number of patients: placebo 1, p=0.6; for Weaning difficulty: pacemaker, number of patients: placebo 2; for Weaning difficulty: pacemaker, number of patients / Weaning difficulty: other, number of patients / Weaning difficulty: other / Weaning difficulty: pacemaker: p=0.7; for Weaning difficulty: other, number of patients: placebo 5; for Weaning difficulty: vasopressors, number of patients / Weaning difficulty: vasopressors: p=0.19; for Patients with any difficulty weaning, number: placebo 13; for Weaning difficulty: other / Weaning difficulty: pacemaker: placebo […]
Protocol: During surgery, anesthesia was maintained by continuous infusion of fentanyl and midazolam. Routine clinical parameters were recorded using standard operating room monitoring equipment. Continuous 2-lead Holter ECG and TEE data were recorded. Standard surgical procedures (e.g., aorta cross-clamping, crystalloid cardioplegia, cardio-pulmonary bypass, hypothermia) were used. Anastomoses were constructed, aorta cross-clamp removed and patients were discontinued from bypass when body temperature was 37° C. The quality of anastomosis was judged by the surgeon. Difficulty in weaning from bypass was judged by need for one or more of the following: pacemaker, return to bypass, balloon pump or vasopressor administration. Hemodynamic measurements, including heart rate, arterial blood pressure, pulmonary capillary wedge pressure and cardiac output, were recorded before sternotomy, 15 and 30 min after bypass and upon chest closure. Radial artery and pulmonary artery pressures, myocardial and whole body temperature, O2 saturation, end-tidal CO2 and arterial blood gases were measured, and ECG recordings were obtained as clinically indicated. Hemodynamic variables (blood pressure, heart rate, pulmonary capillary wedge pressure) were controlled within 20% of baseline using prescribed regimens.
The incidence of adverse clinical outcomes, such as cardiac death (death of patient attributable to primarily cardiac causes, non-fatal transmural MI (as measured by the appearance of a new Q-wave on 12-lead ECG plus a CK-MB value of ≥50 units), non-transmural MI (CK-MB value of ≥50 units), congestive heart failure (low cardiac output requiring intra-aortic balloon pump or left ventricular assist device) or life-threatening dysrhythmia (ventricular fibrillation, or ventricular tachycardia requiring cardioversion or drug treatment) was compared between the placebo and treatment groups. For the diagnosis of myocardial infarction, ECG tracings and CK-MB values were assessed centrally by observers blinded to treatment. The difficulty of weaning the patient from bypass, if any, was compared between placebo and treatment groups by noting need for one or more of the following: pacemaker, return to bypass, balloon pump or use of vasopressors.
8. Difficulty in Weaning. Patients were considered to have difficulty in weaning if they needed one or more of the following interventions: pacemaker, return to bypass, balloon pump or use of vasopressors. The number of patients receiving each of the above interventions was analyzed using a X^2 and Fisher's exact test, as was the number of patients classified as having difficulty in weaning. In addition, the time to weaning (defined as time from cross-clamp removal to end of bypass) in the patients experiencing difficulty were compared by a 1-way analysis of variance.
As noted, patients were determined as being difficult to remove from cardiopulmonary bypass if they required one or more of the following interventions: insertion of a pacemaker, return to bypass, use of a balloon pump or administration of vasopressors, or another intervention which the investigation determines is indicative of difficulty in weaning. […] When a combination of the high and low dose groups were compared to placebo (Table 9b), the reduced need for vasopressor support approached statistical significance (p=0.08). […] There were no differences in any of the weaning difficulty parameters discussed above between the high and low dose groups (Table 9c).

[3] = AICA riboside plasma level <0.25 μg/ml, n=209
[4] = AICA riboside plasma level <0.25 μg/ml, n=211
[5] = plasma level 0.25-2.00 μg/ml, n=83
[6] = plasma level 0.25-2.00 μg/ml, n=89
[7] = plasma level 2.00-3.00 μg/ml, n=114
[8] = plasma level 2.00-3.00 μg/ml, n=116
[9] = plasma level 3.00-4.00 μg/ml, n=44
[10] = plasma level 4.00-5.00 μg/ml, n=61
[11] = plasma level 5.00-6.00 μg/ml, n=49
[12] = plasma level 5.00-6.00 μg/ml, n=50

In the case of `NC(=O)c1ncn([C@@H]2O[C@H](CO)[C@@H](O)[C@H]2O)c1N` [AICA riboside, 5-amino-1-β-D-ribofuranosyl-imidazole-4-carboxamide], the “Incidence of myocardial infarction” value [1, 3] is reported as 4.3%, the “Myocardial infarction, number of patients” value [1, 3] is reported as 9 patients and the “Combined clinical outcome, number of patients” value [1, 4] is reported as 29 patients. For the same molecule, the “Incidence of combined clinical outcome” value [1, 4] was 13.7%, the “Most effective plasma level of AICA riboside” value ([1]; from Table 13) was 3 to 6 µg/mL and the “Incidence of myocardial infarction” value [1, 5] was 2.4%. For the same molecule, the “Myocardial infarction, number of patients” value [1, 5] was 2 patients, the “Combined clinical outcome, number of patients” value [1, 6] was 9 patients and the “Incidence of combined clinical outcome” value [1, 6] was 10.1%. The “Incidence of myocardial infarction” value [1, 7] was 4.4%, the “Myocardial infarction, number of patients” value [1, 7] was 5 patients and the “Combined clinical outcome, number of patients” value [1, 8] was 11 patients. The “Incidence of combined clinical outcome” value [1, 8] was 9.5%, the “Combined clinical outcome, number of patients” value [1, 9] was 3 patients and the “Incidence of combined clinical outcome” value [1, 9] was 6.8%. For the same molecule, the “Incidence of myocardial infarction” value [1, 9] was 2.3%, the “Myocardial infarction, number of patients” value [1, 9] was 1 patients and the “Combined clinical outcome, number of patients” value [1, 10] was 2 patients. The “Incidence of combined clinical outcome” value [1, 10] was 3.3%, the “Myocardial infarction, number of patients” value [1, 10] was 0 patients and the “Incidence of myocardial infarction” value [1, 11] was 4.1%. The “Myocardial infarction, number of patients” value [1, 11] was 2 patients, the “Combined clinical outcome, number of patients” value [1, 12] was 3 patients and the “Incidence of combined clinical outcome” value [1, 12] was 6.0%. For the same molecule, the “Incidence of myocardial infarction” value ([1]; plasma level >6.00 μg/ml, n=44) was 2.3%, the “Myocardial infarction, number of patients” value ([1]; plasma level >6.00 μg/ml, n=44) was 1 patients and the “Combined clinical outcome, number of patients” value ([1]; plasma level >6.00 μg/ml, n=46) was 4 patients. For the same molecule, the “Incidence of combined clinical outcome” value ([1]; plasma level >6.00 μg/ml, n=46) was 8.7%, the “Weaning time (cross-clamp removal to termination of bypass)” value (“Weaning time” below) ([2]; 0.05 mg/kg/min, n=41, all patients, placebo 23 +/- 2.9) was 20 +/- 2.2 and the “Weaning difficulty: balloon pump, number of patients” value ([2]; 0.05 mg/kg/min, n=41) was 0 patients. For the same molecule, the “Weaning difficulty: return to bypass, number of patients” value ([2]; 0.05 mg/kg/min, n=41) was 0 patients, the “Weaning difficulty: pacemaker, number of patients” value ([2]; 0.05 mg/kg/min, n=41) was 4 patients and the “Weaning difficulty: other, number of patients” value ([2]; 0.05 mg/kg/min, n=41) was 3 patients. For the same molecule, the “Weaning difficulty: vasopressors, number of patients” value ([2]; 0.05 mg/kg/min, n=41, placebo 8) was 3 patients, the “Patients with any difficulty weaning, number” value ([2]; 0.05 mg/kg/min, n=41, p=0.17) was 7 patients and the “Weaning difficulty: vasopressors” value ([2]; 0.05 mg/kg/min, n=41, placebo 21.6%) was 7.3%. For the same molecule, the “Patients with any difficulty weaning” value ([2]; 0.05 mg/kg/min, n=41, placebo 35%, p=0.17) was 17%, the “Weaning difficulty: other” value ([2]; 0.05 mg/kg/min, n=41) was 7.3% and the “Weaning difficulty: pacemaker” value ([2]; 0.05 mg/kg/min, n=41) was 9.8%. The “Weaning time” value ([2]; 0.05 mg/kg/min, patients with difficulty, placebo 31.8 +/- 6.3) was 20 +/- 4.6, the “Weaning time” value ([2]; 0.1 mg/kg/min, n=34, all patients, placebo 23 +/- 2.9) was 17 +/- 1.8 and the “Weaning difficulty: balloon pump, number of patients” value ([2]; 0.10 mg/kg/min, n=35) was 0 patients. The “Weaning difficulty: return to bypass, number of patients” value ([2]; 0.10 mg/kg/min, n=35) was 0 patients, the “Weaning difficulty: pacemaker, number of patients” value ([2]; 0.10 mg/kg/min, n=35) was 4 patients and the “Weaning difficulty: other, number of patients” value ([2]; 0.10 mg/kg/min, n=35) was 4 patients. The “Weaning difficulty: vasopressors, number of patients” value ([2]; 0.10 mg/kg/min, n=35, placebo 8) was 4 patients, the “Patients with any difficulty weaning, number” value ([2]; 0.10 mg/kg/min, n=35, p=0.17) was 8 patients and the “Weaning difficulty: vasopressors” value ([2]; 0.10 mg/kg/min, n=35, placebo 21.6%) was 11.4%. The “Patients with any difficulty weaning” value ([2]; 0.10 mg/kg/min, n=35, placebo 35%, p=0.17) was 23%, the “Weaning difficulty: other” value ([2]; 0.10 mg/kg/min, n=35) was 11.4% and the “Weaning difficulty: pacemaker” value ([2]; 0.10 mg/kg/min, n=35) was 11.4%. For the same molecule, the “Weaning time” value ([2]; 0.1 mg/kg/min, patients with difficulty, placebo 31.8 +/- 6.3) was 20.8 +/- 4.2, the “Patients with any difficulty weaning, number” value ([2]; 0.05 + 0.10 mg/kg/min combined, n=76, p=0.06) was 15 patients and the “Patients with any difficulty weaning” value ([2]; 0.05 + 0.10 mg/kg/min combined, n=76, placebo 35.1%, p=0.06) was 19.7%. For the same molecule, the “Vasopressors required, number of patients” value ([2]; 0.05 + 0.10 mg/kg/min combined, placebo 8, p=0.08) was 7 patients, the Vasopressors required ([2]; 0.05 + 0.10 mg/kg/min combined, placebo 21.6%, p=0.08) was 9.2% and the “Need for vasopressor support vs placebo” value ([2]; low and high dose groups, p=0.19 separately, p=0.08 combined) was “strong trend towards a reduced need for vasopressor support; also recorded: less likely to receive vasopressor assistance”. For the same molecule, the “Weaning difficulty vs placebo” value ([2]; p=0.17 when compared separately, p=0.06 combined dose groups) was “towards a reduction in weaning difficulty in the drug treated groups”.
